We go through 7 compounds from ChEMBL document CHEMBL1139152, “Epoxygenase eicosanoids: synthesis of tetrahydrofuran-diol metabolites and their vasoactivity” (Bioorg Med Chem Lett, 2007).

Experiment [1] in a line: Vasodilatory activity assessed as relaxation of U46619-induced contraction of bovine coronary arteries at 10 nM to 10 uM. Format: functional, tissue-based. The conditions noted are these: Bos taurus, Coronary artery.
The nature of experiment [2]: Vasodilatory activity assessed as relaxation of U46619-induced contraction of bovine coronary arteries. Format: functional. Conditions: Bos taurus; Coronary artery.

Calls of active or inactive are those of the source. The calls are words filed in the database; no cut-off is given here.

As for `CCCCC/C=C\C[C@H]1O[C@H]([C@@H](O)C/C=C\CCCC(=O)O)C[C@H]1O`, the outcome in experiment [1] was Active.

Take `CCCCC/C=C\C[C@H]1O[C@H]([C@H](O)C/C=C\CCCC(=O)O)C[C@@H]1O`: in experiment [1], the result was Active. Turning to `CCCCC/C=C\C[C@@H]1O[C@H]([C@H](O)C/C=C\CCCC(=O)O)C[C@H]1O`, in experiment [1], the outcome was Active.

Consider `CCCCC/C=C\C[C@H]1O[C@H]([C@@H](O)C/C=C\CCCC(=O)O)C[C@@H]1O`, for which, in experiment [1], the outcome was Active.

As for `CCCCC/C=C\C[C@@H]1O[C@H]([C@H](O)C/C=C\CCCC(=O)O)C[C@@H]1O`, the outcome in experiment [1] was Active. On to `CCCCCC1OC1C/C=C/C/C=C/C/C=C/CCCC(=O)O` (centres undefined), for which the result in experiment [1] was Active. In experiment [2], the ED50 amounted to 2500 nM.

Regarding `CCCCC/C=C\C[C@H]1O[C@H]([C@H](O)C/C=C\CCCC(=O)O)C[C@H]1O`, the outcome in experiment [1] was Active. The ED50 in experiment [2] was found to be 3000 nM.
